Assay results taken from US10513694B2, “Thienopyrrole compounds and uses thereof” (PROMEGA CORPORATION, priority 2015, dated 2019).
Entries after “also recorded” stand apart in the source; their conditions may differ.

Key:
[1] = system: HEK293 cells; assay: Cell viability and toxicity (CellTiter-Glo); assay type: cell-based; settings: at concentrations greater than 2 μg/mL
Method: HEK293 cells were plated at 20 k cells/well and exposed to vehicle (DMSO), digitonin (positive control for cell death), or JRW-0344 for 10 min/30 min/120 min/240 min/or 18 hrs. CellTiter-Glo (Promega Corp.) was added, and luminescence measured.

[2] = system: firefly luciferase, e.g., ULTRAGLO® luciferase; assay: Specificity of inhibition: firefly luciferase activity; assay type: biochemical; settings: 1 μM luciferin in Luciferase Detection Reagent; RT 2 hrs
Method: The following example describes the specificity of disclosed thienopyrrole compounds, JRW-0004, JRW-0013, JRW-0006, JRW-0042, JRW-0138, and JRW-0147, to inhibit Nluc luciferase activity versus firefly luciferase activity, e.g., ULTRAGLO® luciferase. In a Corning 3570 assay plate, a solution containing 1 μM luciferin in Luciferase Detection Reagent (Promega Corporation V865/859) was added to the assay wells. An equal volume of titrations the thienopyrrole compounds, JRW-0004, JRW-0013, JRW-0006, JRW-0042, JRW-0138, and JRW-0147 were then added to the wells. The reactions were incubated at RT for 2 hrs, and luminescence was measured on Tecan M1000 Pro plate reader.

[3] = target: NANOLUC® enzyme (Oplophorus gracilirostris, UniProt Q9GV45, A31E/A60N/A81I/F95D/I117V/K70R/L54V/L99Q/M102K/N193R/P142E/Q151K/Q38R/Q45L/V71I/Y165I); assay: Inhibitor IC50 determination (NANOLUC enzyme, furimazine); assay type: biochemical; settings: IC50 (uM), 0.4 ng/ml NANOLUC enzyme, final furimazine 10 uM (at Km)
Chain of NANOLUC® enzyme (Q9GV45 28-196 with tags or gaps with the stated changes limits assumed): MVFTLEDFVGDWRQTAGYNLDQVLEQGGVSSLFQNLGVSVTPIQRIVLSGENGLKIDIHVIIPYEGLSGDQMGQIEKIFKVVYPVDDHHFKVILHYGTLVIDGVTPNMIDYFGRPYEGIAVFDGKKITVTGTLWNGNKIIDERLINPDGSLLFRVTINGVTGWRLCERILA

[4] = target: T1, purified Nluc enzyme (Oplophorus gracilirostris, UniProt Q9GV45, A31E/A60N/A81I/F95D/I117V/K70R/L54V/L99Q/M102K/N193R/P142E/Q151K/Q38R/Q45L/V71I/Y165I); assay type: biochemical; settings: titration up to 100 μM final; RT 2 hrs; pro-substrate PBI-4442 + DTT
T1 construct: purchased Promega Corporation
T1 sequence (Q9GV45 28-196 with tags or gaps with the stated changes limits assumed): as above
Method: In a Corning 3570 assay plate, purified Nluc enzyme (Promega Corporation), 20 mM DTT, and an Nluc pro-substrate (PBI-4442, which is described in US Patent Publication No. 2013/0130289), which is converted to an Nluc substrate upon reduction with DTT, was added. Compound titrations of JRW-0004, JRW-0013, JRW-0006, JRW-0042, JRW-0138, and JRW-0147 were then made (1:2 serial dilution in PBS, 11 points plus no inhibitor control, starting at 200 μM; 100 μM final concentration in reaction). Compound titrations were added in equal volume to the wells of the assay plate. The reactions were incubated at RT for 2 hrs, and luminescence was measured on Tecan M1000 Pro plate reader. Half-maximal inhibitor (thienopyrrole compound) concentrations (IC50s) were determined using GraphPad Prism 6.03.

[5] = target: Nluc (Oplophorus gracilirostris, UniProt Q9GV45, A31E/A60N/A81I/F95D/I117V/K70R/L54V/L99Q/M102K/N193R/P142E/Q151K/Q38R/Q45L/V71I/Y165I); assay: Multiplex RealTime-Glo / Caspase-Glo 3/7 in MCF7 cells; assay type: cell-based; set-up: purchased Promega Corporation
Chain of Nluc (Q9GV45 28-196 with tags or gaps with the stated changes limits assumed): as above
Method: (§1) A) In a Corning 3570 assay plate, MCF7 cells were plated at 1,000 cells/well in 20 μL of cell culture media (EMEM supplemented with 0.01 mg/mL human recombinant insulin and 10% fetal bovine serum) and incubated in overnight. 10 μL of 4× REALTIME-GLO™ MT Cell Viability reagents (Promega Corporation) in media or 10 μL media only was added to the cells. 10 μL of 40 μM staurosporine in media or 10 μL media only (control) was added to the cells. The cells were incubated, and caspase activation monitored at 5.5 hrs post-reagent addition. To monitor caspase activation, 40 μL CASPASE-GLO® 3/7 Assay Reagent (Promega Corporation), either on its own (Caspase) or with 200 μM of JRW-0004, JRW-0013, or JRW-0042, was added. Reactions were incubated at RT, and luminescence was measured at 1 hr 10 min post-reagent addition on Tecan M1000 Pro plate reader.
(§2) When comparing the signal generated from the CASPASE-GLO® reagent in media only versus the signal generated in media containing REALTIME-GLO™ reagent, the signal is higher in the multiplex reaction.

[6] = system: Nluc enzyme; assay: as above; assay type: cell-based
Method: as §1, §2

[7] = system: B2AR-Nluc or Nluc-B2AR fusion protein; assay: Cell permeability with bioluminescent imaging (HeLa, B2AR-Nluc / Nluc-B2AR); assay type: cell-based; settings: 30 μM compound, 10 μM furimazine
Method: HeLa cells were transiently transfected with Beta-2 Adrenergic Receptor-Nluc (B2AR-Nluc; C-Terminus Nluc) or Nluc-Beta-2 Adrenergic Receptor (Nluc-B2AR; N-terminus Nluc) fusion protein to anchor and orient Nluc intracellularly or extracellularly, respectively. 24 hrs post-transfection, cells were treated with −/+30 μM of a thienopyrrole compound, JRW-0147, JRW-0051, and JRW-0138. 10 μM furimazine was added, and luminescence was detected by imaging on the Olympus LV200.

[8] = target: T2, purified Nluc (extracellular); Nluc-HALOTAG fusion protein (intracellular) (Oplophorus gracilirostris, UniProt Q9GV45, A31E/A60N/A81I/F95D/I117V/K70R/L54V/L99Q/M102K/N193R/P142E/Q151K/Q38R/Q45L/V71I/Y165I); assay: Inhibition of extracellular luciferase activity and enhancement of intracellular BRET; assay type: cell-based; settings: HEK293 Nluc-HALOTAG + NANOBRET 618; 10 ng/mL extracellular purified Nluc; 2 hrs
T2 construct: expressed in transfected cells; host or cells: HEK293 (Nluc-HaloTag); purified Nluc added from outside
T2 sequence (Q9GV45 28-196 with tags or gaps with the stated changes limits assumed): as above
Method: HEK293 were transiently transfected with Nluc-HALOTAG fusion protein to orient Nluc-HALOTAG inside the cell. 24 hrs post-transfection, cells were labeled with NANOBRET 618 ligand to simulate specific intracellular BRET. Cells were then treated 10 ng/mL purified Nluc to simulate spurious extracellular luminescence. Cells were exposed to a compound response curve of the thienopyrrole compounds, JRW-0013, JRW-0051, JRW-0147, and JRW-0187, for 2 hrs. 10 μM furimazine was added, and the BRET ratio 610/450 nm was measured.

[9] = system: Nluc-HALOTAG labeled with NANOBRET 618 ligand; assay: Inhibition of extracellular BRET; assay type: cell-based; settings: HEK293 Nluc-HDAC6; 10 ng/mL extracellular Nluc-HALOTAG/NANOBRET 618; 2 hrs
Method: HEK293 were transiently transfected with an Nluc-HDAC6 fusion protein to orient Nluc-HDAC6 inside the cell. 24 hrs post-transfection, cells were treated 10 ng/mL purified Nluc-HALOTAG labeled with NANOBRET 618 ligand to simulate spurious extracellular BRET. Cells were then exposed to a compound response curve of the thienopyrrole compounds, JRW-0013, JRW-0051, JRW-0147, and JRW-0187, for 2 hrs. 10 μM furimazine was then added, and BRET ratio 610/450 nm was measured.

[10] = system: Beta-2 Adrenergic Receptor-Nluc (B2AR-Nluc) fusion protein; assay: Cell permeability, B2AR-Nluc in HEK293 or HeLa cells -/+ digitonin; assay type: cell-based
Method: HEK293 or HeLa cells were transiently transfected with Beta-2 Adrenergic Receptor-Nluc (B2AR-Nluc) fusion protein to anchor and orient Nluc cytosolically. 24 hrs post-transfection, cells were treated with −/+50 μg/mL digitonin to emulate a live and lytic scenario, respectively. Then, intact cells and permeabilized cells were exposed to a compound response curve of thienopyrrole compound up to 2 hrs. 10 μM furimazine (Promega Corp.) was added, and luminescence was measured. If a thienopyrrole compound (inhibitor) was permeable, the dose-response curves for both live and permeabilized cells overlapped. However, if a thienopyrrole compound was impermeable, the EC50 was right-shifted in the live cells relative to the permeabilized cells.

[11] = 10 μM Stauro vs Control, 200 μM compound
[12] = CASPASE-GLO 3/7 reagent with 200 μM compound, 1 hr 10 min

Row | SMILES | Inhibition of firefly luciferase activity (FIG. 3) [2] | IC50 [3] | Inhibition of purified Nluc enzyme (FIG. 2) [4] | Permeability and inhibition of extracellular / intracellular Nluc by imaging (FIG. 14) [7] | BRET ratio 610/450 nm across compound dose-response curve (FIGS. 13B-13E) [8] | BRET ratio 610/450 nm across compound dose-response curve (FIGS. 12B-12E) [9] | Cell permeability [10] | also measured
1 | C[C@@H]1CC[C@@]2(OC1)O[C@H]1[C@@H](O)[C@H]3[C@@H]4CC[C@H]5C[C@@H](O[C@@H]6O[C@H](CO)[C@H](O[C@@H]7O[C@H](CO)[C@@H](O)[C@H](O[C@@H]8OC[C@@H](O)[C@H](O)[C@H]8O)[C@H]7O[C@@H]7O[C@H](CO)[C@H](O)[C@H](O[C@@H]8O[C@H](CO)[C@@H](O)[C@H](O)[C@H]8O)[C@H]7O)[C@H](O)[C@H]6O)[C@H](O)C[C@]5(C)[C@H]4CC[C@]3(C)[C@H]1[C@@H]2C [Digitonin, reference compound] | – | – | – | – | – | – | – | Cell death (FIG. 18B) [1]: almost complete death
2 | CCCCNC(=O)[C@H]1CC[C@H](NC(=O)c2cc3sccc3n2CC(=O)N(CC)c2cccc(C)c2)CC1 [JRW-0042, N-(trans-4-(butylcarbamoyl)cyclohexyl)-4-(2-(ethyl(m-tolyl)amino)-2-oxoethyl)-4H-thieno[3,2-b]pyrrole-5-carboxamide] | do not inhibit firefly luciferase activity; also recorded: did not inhibit the firefly luciferase activity | 0.31 µM | capable of inhibiting purified Nluc enzyme | – | – | – | – | Fold Cont, Media containing RealTime-Glo [5, 11]: 5.05; Avg (luminescence), Media containing RealTime-Glo, 10 μM Stauro [5, 12]: 53956; Avg (luminescence), Media containing RealTime-Glo, Control [5, 12]: 10679; Fold Cont, Media only [6, 11]: 5.81; Avg (luminescence), Media only, 10 μM Stauro [6, 12]: 62280; Avg (luminescence), Media only, Control [6, 12]: 10718
3 | CCN(C(=O)Cn1c(C(=O)N[C@H]2CC[C@H](C(=O)NCCCC(=O)O)CC2)cc2sccc21)c1cccc(C)c1 [JRW-0051, 4-(trans-4-(4-(2-(ethyl(m-tolyl)amino)-2-oxoethyl)-4H-thieno[3,2-b]pyrrole-5-carboxamido)cyclohexane-1-carboxamido)butanoic acid] | – | 0.74 µM | – | impermeable and inhibited extracellular Nluc and enhanced intracellular Nluc | intracellular BRET ratio was enhanced | BRET ratio decreased | cell-impermeable | –
4 | CCCCCCNC(=O)[C@H]1CC[C@H](NC(=O)c2cc3sccc3n2CC(=O)N(CC)c2cccc(C)c2)CC1 [JRW-0138, 4-(2-(ethyl(m-tolyl)amino)-2-oxoethyl)-N-(trans-4-(hexylcarbamoyl)cyclohexyl)-4H-thieno[3,2-b]pyrrole-5-carboxamide] | do not inhibit firefly luciferase activity; also recorded: did not inhibit the firefly luciferase activity | 0.13 µM | capable of inhibiting purified Nluc enzyme | cell permeable and inhibited both intracellular and extracellular Nluc | – | – | cell-permeable | –
5 | CCN(C(=O)Cn1c(C(=O)N[C@H]2CC[C@H](C(=O)N3CCC(C(=O)O)CC3)CC2)cc2sccc21)c1cccc(C)c1 [JRW-0187, 1-(trans-4-(4-(2-(ethyl(m-tolyl)amino)-2-oxoethyl)-4H-thieno[3,2-b]pyrrole-5-carboxamido)cyclohexane-1-carbonyl)piperidine-4-carboxylic acid] | – | – | – | – | intracellular BRET ratio was enhanced | BRET ratio decreased | cell-impermeable | –
